The values that follow are results of earlier work, collected in patent publication US20080070828A1, “Ace-Inhibitory Whey Hydrolysates” (FRIESLAND BRANDS B.V., priority 2004, published 2008).

In data set [1] the test system is ACE. The note with it: for Literature IC50 / IC50: ACE-inhibitory peptides from BLG; for IC50: read-out: Literature IC50.
The test system of data set [2] is hypertensive rats. The note with it: among 9 identified peptide sequences.

By IC50 is commonly meant the concentration at which inhibition is half-maximal. Turning to Ile-Pro-Ala [f(78-80), BLG tripeptide], in data set [1], the “Literature IC50” value was 42 µg/mL and the concentration for half-maximal inhibition (IC50) was 141 µM. In addition, the antihypertensive activity result in data set [2] was “strongest antihypertensive activity”.

Regarding “f(9-14): ACE-inhibitory peptide from BLG (GLDIQK; UniProt P02754 25-30, looked up, fragment)”, in data set [1], the “Literature IC50” value was 390 µg/mL and the half-maximal inhibitory concentration (IC50) was 580 µM.

On to “f(15-20): ACE-inhibitory peptide from BLG (VAGTWY; UniProt P02754 31-36, looked up, fragment)”, for which, in data set [1], the “Literature IC50” value is 1170 µg/mL and the IC50 was 1680 µM.

In the case of “f(22-25): ACE-inhibitory peptide from BLG (LAMA; UniProt P02754 38-41, looked up, fragment)”, in data set [1], the “Literature IC50” value is 430 µg/mL and the IC50 is 1060 µM.

Consider “f(32-40): ACE-inhibitory peptide from BLG (LDAQSAPLR; UniProt P02754 48-56, looked up, fragment)”, for which, in data set [1], the “Literature IC50” value is 616 µg/mL and the IC50 was 635 µM.

“f(81-83): ACE-inhibitory peptide from BLG (VFK; UniProt P02754 97-99, looked up, fragment)”: in data set [1], the “Literature IC50” value was 404 µg/mL and the half-maximal inhibitory concentration (IC50) is 1030 µM.

For the substance “f(94-100): ACE-inhibitory peptide from BLG (VLDTDYK; UniProt P02754 110-116, looked up, fragment)”, in data set [1], the “Literature IC50” value is 807 µg/mL and the IC50 was 946 µM.

Turning to “f(102-105): ACE-inhibitory peptide from BLG (YLLF; UniProt P02754 118-121, looked up, fragment)”, in data set [1], the “Literature IC50” value is 95 µg/mL and the half-inhibitory concentration (IC50) was 172 µM.

Turning to “f(106-111): ACE-inhibitory peptide from BLG (CMENSA; UniProt P02754 122-127, looked up, fragment)”, in data set [1], the “Literature IC50” value was 515 µg/mL and the IC50 is 788 µM.

For “f(142-146): ACE-inhibitory peptide from BLG (ALPMH; UniProt P02754 158-162, looked up, fragment)”, in data set [1], the “Literature IC50” value was 296 µg/mL and the half-maximal inhibitory concentration (IC50) was 521 µM.

On to “f(142-148): peptide isolated from a trypsin hydrolysate of bovine BLG (ALPMHIR; UniProt P02754 158-164, looked up, fragment)”, for which the 50% inhibitory concentration (IC50) in data set [1] was 43 µM. Further, the “IC50 reported in WO 01/85984” value in data set [1] (single hydrolysis step with trypsin or bacterial protease, f142-148 as reference) is 40 µg/mL.

Regarding “f(146-149): ACE-inhibitory peptide from BLG (HIRL; UniProt P02754 162-165, looked up, fragment)”, in data set [1], the “Literature IC50” value is 620 µg/mL and the IC50 was 1150 µM.
